This is an account of results in patent US20260355142A1, “AMORPHOUS OTE[…] COMPOSITIONS AND USES THEREOF AND DOSAGE REGIMENS FOR OTENAPROXESUL” (ANTIBE THERAPEUTICS INC., priority 2022, published 2026).

The nature of data set [1]: Rat pharmacokinetics of otenaproxesul amorphous dispersion (Example 19). Format: in vivo, Rats. As to conditions: HED 260 mg once daily. As for the experimental part: Rats were administered five treatment doses of the otenaproxesul amorphous solid dispersion (i.e., exemplary ASD no. 1 (35% drug: 65% polymer by weight)) and a crystalline otenaproxesul control dose. […] One group of rats was administered a human equivalent dose of 208 mg twice daily (416 mg total daily dose). Crystalline otenaproxesul was administered at the no observed adverse effect level (NOAEL) dose equivalent to a human dose of 260 mg once daily.
Pharmacokinetic data was evaluated on M25 plasma naproxen concentrations at 60 minutes post administration, Day 1 M25 plasma exposure (AUC0-24) and Day 4 M25 plasma exposure (AUC0-Last). Assessment of dose proportional characteristics for both M25 plasma concentration and AUC exposure were measured.
The human equivalent dose (HED) is related to the administered rat dose by an allometric scaling formula, for example: HED (mg)=([rat dose in mg/kg×0.16]×65 kg).

Data set [2] is described as follows: H2S release / formulation stability in simulated intestinal fluid. Particulars: SIF, 1 mg/ml, 37° C., 5% CO2. How it is done:
Assay design: 1 mg of exemplary ASD no. 1 and crystalline otenaproxesul were weighed in separate glass vials. SIF was added to prepare a 1 mg/ml solution which was incubated at 37° C. with 5% CO2. 120 μl was removed at 0.5, 1, 2, 3, 4 and 8 hrs and quenched in DPD (N,N-dimethyl-p-phenylenediamine sulfate) and FeCl3 solutions. A calibration curve was prepared to quantify amount of H2S released. A blank and 10 mM stock was also analyzed. The methylene blue was analyzed using HPLC.

A further data set deals with PGE2. Briefly: Pharmacodynamics in Beagle dogs, plasma PGE2. Format: in vivo. Particulars: 15 mg/kg. How it is done: The pharmacokinetics of five different formulations of otenaproxesul (formerly ATB-346) were evaluated in Beagle dogs. Five groups of dogs (n=3/group) were orally administered their assigned formulations once daily for four days. Blood samples were taken for a full 24-hour PK profile on Day 1 and on Day 4.
Group 1 was administered crystalline otenaproxesul, Group 2 was administered milled crystalline otenaproxesul, Group 3 was administered micro-milled crystalline otenaproxesul, Group 4 was administered exemplary ASD no. 1 (see Example 7A above) and Group 5 was administered exemplary ASD no. 4 (see Example 7A above). Dose administered was 15 mg/kg (human equivalent dose of 525 mg).
Pharmacodynamic assessment of TXB2 and PGE2 plasma concentrations were assessed on: • Day 1, one hour post treatment • Day 1, 12 hours post treatment • Day 4, pre-treatment • Day 4, one hour post treatment • Day 4, 12 hours post treatment.

A short description of data set [3]: Stability/purity of ASDs by HPLC. Format: physicochemical. As to conditions: no storage condition given. How it is done: The stability of the exemplary amorphous solid dispersions of the application were evaluated using HPLC and are shown in Tables 14 A and B.
HPLC analyses were performed on a Waters 2695 or Agilent 1200, or equivalent, instrument. The column was an ACE-5 C18 150 mm×4.6 mm, 5 μm or equivalent column. The flow rate was 1.0 mL/min, the injection volume was 10 μL, the column temperature was 25° C., the sample temperature was 5° C. and the wavelength for detection was 254 nm. Two eluents were used which were either (1) A: 1.8 g K2HPO4·3H2O dissolved in 1000 ml of water and pH adjusted to 5.5 using orthophosphoric acid and B: acetonitrile; or (2) A: 1.4 g K2HPO4·3H2O dissolved in 1000 ml of water and pH adjusted to 7.0 with 85% phosphoric acid and B: acetonitrile.

Data set [4] can be described thus: Phase 1 SAD/MAD clinical trial, safety and tolerability. Format: in vivo, human. As for the experimental part:
Otenaproxesul (crystalline form) was orally administered at a range of doses to healthy volunteers, both as a single dose, and as a daily (or twice-daily) dose for 14 days. Each cohort consisted of 8 subjects, with 6 receiving otenaproxesul and 2 receiving placebo. A total of 8 cohorts were studied in the single-dose study (25 mg, 75 mg, 150 mg, 300 mg, 500 mg, 1000 mg, 1500 mg and 2000 mg), and 3 cohorts in the multiple-dose study (250 and 750 once daily, and 750 mg bid (e.g., 1500 mg/day) for 14 days). All adverse events were recorded, and blood samples were drawn prior to and for at least 72 h after drug administration for measurement of otenaproxesul-derived naproxen levels. Routine cardiovascular, renal, hepatic and hematological biomarkers were monitored, along with clinical signs. Multiple ascending dose studies examined otenaproxesul at doses of 250 and 750 mg once daily, and 750 mg twice daily.

The mark [5] stands for this setting: single dose, oral, 25 mg to 2000 mg, crystalline.

`COc1ccc2cc([C@H](C)C(=O)Oc3ccc(C(N)=S)cc3)ccc2c1` [crystalline otenaproxesul]: the “AUC increase between Day 1 and Day 4” value in data set [1] (female rats) is 60%; in data set [1] (male rats), 30%. Moreover, the H2S release in data set [2] (0.5 hrs) was 0.7 µM; in data set [2] (1 hr), 0.7 µM; in data set [2] (2 hrs), 1.2 µM; in data set [2] (3 hrs) it was 2.2 µM; in data set [2] (4 hrs) it was 3.7 µM; in data set [2] (8 hrs), 8.5 µM. Further, the values for the PGE2 inhibition result in the data set on PGE2 (Day 1 12-hour) and in the data set with PGE2 (Day 4 pre-treatment) were “not maintained” and “recovered to a large extent”, respectively. Also, the “ATB-346 API” value in data set [3] is recorded as 99.45%. This molecule also showed an RRT-0.84 in data set [3] of 0.18%. Besides, in data set [3], the “RRT-0.85 ATB-346-Amide” value was found to be 0.07%. The molecule also came in with an RRT-1.10 in data set [3] of 0.25%.
In the case of `COc1ccc2cc([C@H](C)C(=O)Oc3ccc(C(N)=S)cc3)ccc2c1` [otenaproxesul, (S)-4-carbamothioylphenyl 2-(6-methoxynaphthalen-2-yl) propanoate], the tolerability entry in data set [4] (all single, once daily administered dose levels) is “very well tolerated and shown to be safe”. Also, in data set [4] (setting [5]), the “gastrointestinal, cardiovascular, renal or hematological findings” value is listed as “nor were there any significant gastrointestinal, cardiovascular renal, or hematological findings” and the serious adverse events entry is reported as “did not produce any serious adverse events”.
